Reference: patent US20180371044A1, “PEPTIDOMIMETIC MACROCYCLES” (Aileron Therapeutics, Inc., priority 2015, published 2018)
Where a SMILES comes first, the peptide text is derived from it. Bridges are numbered along the chain shown (N, C = ends). [ ]: non-standard residue; d: D form. The star is where a group is joined. NMeY = CN[C@@H](Cc1ccc(O)cc1)C(=O)O; R8 = C=CCCCCCC[C@@](C)(N)C(=O)O; Cit = NC(=O)NCCC[C@H](N)C(=O)O; S5 = C=CCCC[C@](C)(N)C(=O)O; Nle = CCCC[C@H](N)C(=O)O; Abu = CC[C@H](N)C(=O)O; Hexanoyl = CCCCCC(=O)*; Aib = CC(C)(N)C(=O)O

Target: T1, human GHRH receptor (hGHRHR) (Homo sapiens, UniProt Q02643)
T1 construct: expressed in transfected cells; host or cells: Human 293 cells
T1 sequence (Q02643 23-423): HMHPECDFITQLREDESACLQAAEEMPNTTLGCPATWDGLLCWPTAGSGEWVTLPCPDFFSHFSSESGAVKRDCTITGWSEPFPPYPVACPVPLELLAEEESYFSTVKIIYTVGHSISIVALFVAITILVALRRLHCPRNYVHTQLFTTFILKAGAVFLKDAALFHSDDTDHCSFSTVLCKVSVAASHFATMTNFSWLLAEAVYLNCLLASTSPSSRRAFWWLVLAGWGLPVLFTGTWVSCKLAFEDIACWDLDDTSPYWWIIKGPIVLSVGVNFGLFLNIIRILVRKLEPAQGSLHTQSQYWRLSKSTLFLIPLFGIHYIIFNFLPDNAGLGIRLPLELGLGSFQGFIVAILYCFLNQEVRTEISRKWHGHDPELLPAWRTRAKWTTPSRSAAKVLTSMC
Test: GHRHR agonism measured by cAMP (HTRF) in human 293 cells expressing hGHRHR;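 also: receptor expressed transiently or stably, cells stimulated in serum-free medium, EC50 from a non-linear dose-response fit, maximal response defined by reference GHRH stimulation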
Format: cell-based
Settings: 30 min at RT

| SMILES | EC50 |
| --- | --- |
| CCCC[C@H](NC(=O)[C@]1(C)CCCC=CCCCCCC[C@@](C)(NC(=O)[C@H](CO)NC(=O)[C@H](CC(C)C)NC(=O)[C@H](CCC(N)=O)NC(=O)[C@H](C)NC(=O)[C@H](CC(C)C)NC(=O)[C@@H](NC(=O)[C@H](CCCCN)NC(=O)[C@H](CCCNC(=N)N)NC(=O)[C@H](Cc2ccc(O)cc2)NC(=O)[C@H](CO)NC(=O)[C@H](C)NC(=O)[C@@H](NC(=O)[C@H](Cc2ccccc2)NC(=O)[C@@H](NC(=O)[C@H](C)NC(=O)[C@H](CC(=O)O)NC(=O)[C@H](C)NC(=O)[C@H](Cc2ccc(O)cc2)NC)[C@@H](C)CC)[C@@H](C)O)C(C)C)C(=O)N[C@@H](CCCNC(=N)N)C(=O)N[C@@H](CCCCN)C(=O)N[C@@H](C)C(=O)N[C@@H](CC(C)C)C(=O)N[C@@H](CCC(N)=O)C(=O)N[C@@H](CC(=O)O)C(=O)N1)C(=O)N[C@@H](CO)C(=O)N[C@@H](CCCNC(=N)N)C(N)=O [SP-31] (H-[NMeY]ADAIFTASYRKVLAQLS[R8]RKALQD[S5][Nle]SR-NH2; staple 19-26) | 1 to 10 nM |
| CCCCCC(=O)N[C@@H](Cc1ccc(O)cc1)C(=O)N[C@@H](C)C(=O)N[C@@H](CC(=O)O)C(=O)N[C@@H](C)C(=O)N[C@H](C(=O)N[C@@H](Cc1ccccc1)C(=O)N[C@H](C(=O)N[C@@H](C)C(=O)N[C@@H](CO)C(=O)N[C@@H](Cc1ccc(O)cc1)C(=O)N[C@@H](CCCNC(=N)N)C(=O)N[C@@H](CCCCN)C(=O)N[C@H](C(=O)N[C@@H](CC(C)C)C(=O)N[C@@H](C)C(=O)N[C@@H](CCC(N)=O)C(=O)N[C@@H](CC(C)C)C(=O)N[C@@H](CO)C(=O)N[C@@H](C)C(=O)N[C@@H](CCCNC(=N)N)C(=O)N[C@@H](CCCCN)C(=O)N[C@@H](C)C(=O)N[C@@H](CC(C)C)C(=O)N[C@@H](CCC(N)=O)C(=O)N[C@@H](CC(=O)O)C(=O)N[C@H](C(=O)N[C@@H](CCCC)C(=O)N[C@@H](CO)C(=O)N[C@@H](CCCNC(=N)N)C(N)=O)[C@@H](C)CC)C(C)C)[C@@H](C)O)[C@@H](C)CC [SP-39] (Hexanoyl-YADAIFTASYRKVLAQLSARKALQDI[Nle]SR-NH2) | 1 to 10 nM |
| CCCC[C@H](NC(=O)[C@@H](NC(=O)[C@H](CC(=O)O)NC(=O)[C@H](CCC(N)=O)NC(=O)[C@H](CC(C)C)NC(=O)[C@H](C)NC(=O)[C@]1(C)CCCC=CCCC[C@](C)(NC(=O)[C@H](CCC(N)=O)NC(=O)[C@H](C)NC(=O)[C@H](CC(C)C)NC(=O)[C@@H](NC(=O)[C@H](CCCCN)NC(=O)[C@H](CCCNC(=N)N)NC(=O)[C@H](Cc2ccc(O)cc2)NC(=O)[C@H](CO)NC(=O)[C@H](C)NC(=O)[C@@H](NC(=O)[C@H](Cc2ccccc2)NC(=O)[C@@H](NC(=O)[C@H](C)NC(=O)[C@H](CC(=O)O)NC(=O)[C@H](C)NC(=O)[C@H](Cc2ccc(O)cc2)NC)[C@@H](C)CC)[C@@H](C)O)C(C)C)C(=O)N[C@@H](CO)C(=O)N[C@@H](C)C(=O)N[C@@H](CCCNC(=N)N)C(=O)N1)[C@@H](C)CC)C(=O)N[C@@H](CO)C(=O)N[C@@H](CCCNC(=N)N)C(N)=O [SP-15] (H-[NMeY]ADAIFTASYRKVLAQ[S5]SAR[S5]ALQDI[Nle]SR-NH2; staple 17-21) | ≤ 1 nM |
| CCCC[C@H](NC(=O)[C@@H](NC(=O)[C@]1(C)CCCC=CCCCCCC[C@@](C)(NC(=O)[C@H](CC(C)C)NC(=O)[C@H](CCC(N)=O)NC(=O)[C@H](C)NC(=O)[C@H](CC(C)C)NC(=O)[C@@H](NC(=O)[C@H](CCCCN)NC(=O)[C@H](CCCNC(=N)N)NC(=O)[C@H](Cc2ccc(O)cc2)NC(=O)[C@H](CO)NC(=O)[C@H](C)NC(=O)[C@@H](NC(=O)[C@H](Cc2ccccc2)NC(=O)[C@@H](NC(=O)[C@H](C)NC(=O)[C@H](CC(=O)O)NC(=O)[C@H](C)NC(=O)[C@H](Cc2ccc(O)cc2)NC)[C@@H](C)CC)[C@@H](C)O)C(C)C)C(=O)N[C@@H](C)C(=O)N[C@@H](CCCNC(=N)N)C(=O)N[C@@H](CCCCN)C(=O)N[C@@H](C)C(=O)N[C@@H](CC(C)C)C(=O)N[C@@H](CCC(N)=O)C(=O)N1)[C@@H](C)CC)C(=O)N[C@@H](CO)C(=O)N[C@@H](CCCNC(=N)N)C(N)=O [SP-30] (H-[NMeY]ADAIFTASYRKVLAQL[R8]ARKALQ[S5]I[Nle]SR-NH2; staple 18-25) | 1 to 10 nM |
| CCCC[C@H](NC(=O)[C@@H](NC(=O)[C@H](CC(=O)O)NC(=O)[C@H](CCC(N)=O)NC(=O)[C@H](CC(C)C)NC(=O)[C@H](C)NC(=O)[C@H](CCCCN)NC(=O)[C@H](CCCNC(=N)N)NC(=O)[C@H](C)NC(=O)[C@H](CO)NC(=O)[C@H](CC(C)C)NC(=O)[C@H](CCC(N)=O)NC(=O)[C@H](C)NC(=O)[C@H](CC(C)C)NC(=O)[C@@H](NC(=O)[C@H](CCCCN)NC(=O)[C@H](CCCNC(=N)N)NC(=O)[C@H](Cc1ccc(O)cc1)NC(=O)[C@H](CO)NC(=O)[C@H](CCC(N)=O)NC(=O)[C@@H](NC(=O)[C@H](Cc1ccccc1)NC(=O)[C@@H](NC(=O)[C@H](C)NC(=O)[C@H](CC(=O)O)NC(=O)[C@H](C)NC(=O)[C@H](Cc1ccc(O)cc1)NC)[C@@H](C)CC)[C@@H](C)O)C(C)C)[C@@H](C)CC)C(=O)N[C@@H](CO)C(=O)N[C@@H](CCCNC(=N)N)C(N)=O [SP-43] (H-[NMeY]ADAIFTQSYRKVLAQLSARKALQDI[Nle]SR-NH2) | ≤ 1 nM |

Further lines, results first:

| EC50 | SMILES |
| --- | --- |
| 1 to 10 nM | CCCC[C@H](NC(=O)[C@@H](NC(=O)[C@H](CC(=O)O)NC(=O)[C@H](CCC(N)=O)NC(=O)[C@H](CC(C)C)NC(=O)[C@H](C)NC(=O)[C@H](CCCCN)NC(=O)[C@H](CCCNC(=N)N)NC(=O)[C@H](C)NC(=O)[C@H](CO)NC(=O)[C@H](CC(C)C)NC(=O)[C@H](CCC(N)=O)NC(=O)[C@H](CC)NC(=O)[C@H](CC(C)C)NC(=O)[C@@H](NC(=O)[C@H](CCCCN)NC(=O)[C@H](CCCNC(=N)N)NC(=O)[C@H](Cc1ccc(O)cc1)NC(=O)[C@H](CO)NC(=O)[C@H](C)NC(=O)[C@@H](NC(=O)[C@H](Cc1ccccc1)NC(=O)[C@@H](NC(=O)[C@H](C)NC(=O)[C@H](CC(=O)O)NC(=O)[C@H](C)NC(=O)[C@H](Cc1ccc(O)cc1)NC)[C@@H](C)CC)[C@@H](C)O)C(C)C)[C@@H](C)CC)C(=O)N[C@@H](CO)C(=O)N[C@@H](CCCNC(=N)N)C(N)=O [SP-44] (H-[NMeY]ADAIFTASYRKVL[Abu]QLSARKALQDI[Nle]SR-NH2) |
| 1 to 10 nM | CCCC[C@H](NC(=O)[C@@H](NC(=O)[C@H](CC(=O)O)NC(=O)[C@H](C)NC(=O)[C@H](CC(C)C)NC(=O)[C@H](C)NC(=O)[C@H](CCCCN)NC(=O)[C@H](CCCNC(=N)N)NC(=O)[C@H](C)NC(=O)C(C)(C)NC(=O)[C@H](CC(C)C)NC(=O)[C@H](CCC(N)=O)NC(=O)[C@H](C)NC(=O)[C@H](CC(C)C)NC(=O)[C@@H](NC(=O)[C@H](CCCCN)NC(=O)[C@H](CCCNC(=N)N)NC(=O)[C@H](Cc1ccc(O)cc1)NC(=O)[C@H](CO)NC(=O)[C@H](C)NC(=O)[C@@H](NC(=O)[C@H](Cc1ccccc1)NC(=O)[C@@H](NC(=O)[C@H](C)NC(=O)[C@H](CC(=O)O)NC(=O)[C@H](C)NC(=O)[C@H](Cc1ccc(O)cc1)NC)[C@@H](C)CC)[C@@H](C)O)C(C)C)[C@@H](C)CC)C(=O)N[C@@H](CO)C(=O)N[C@@H](CCCNC(=N)N)C(N)=O [SP-54] (H-[NMeY]ADAIFTASYRKVLAQL[Aib]ARKALADI[Nle]SR-NH2) |
| 1 to 10 nM | CCCC[C@H](NC(=O)[C@@H](NC(=O)[C@H](CC(=O)O)NC(=O)[C@H](CCC(N)=O)NC(=O)[C@H](CC(C)C)NC(=O)[C@H](C)NC(=O)[C@H](CCCCN)NC(=O)[C@H](CCCNC(N)=O)NC(=O)[C@H](C)NC(=O)[C@H](CO)NC(=O)[C@H](CC(C)C)NC(=O)[C@H](CCC(N)=O)NC(=O)[C@H](C)NC(=O)[C@H](CC(C)C)NC(=O)[C@@H](NC(=O)[C@H](CCCCN)NC(=O)[C@H](CCCNC(=N)N)NC(=O)[C@H](Cc1ccc(O)cc1)NC(=O)[C@H](CO)NC(=O)[C@H](C)NC(=O)[C@@H](NC(=O)[C@H](Cc1ccccc1)NC(=O)[C@@H](NC(=O)[C@H](C)NC(=O)[C@H](CC(=O)O)NC(=O)[C@H](C)NC(=O)[C@H](Cc1ccc(O)cc1)NC)[C@@H](C)CC)[C@@H](C)O)C(C)C)[C@@H](C)CC)C(=O)N[C@@H](CO)C(=O)N[C@@H](CCCNC(=N)N)C(N)=O [SP-48] (H-[NMeY]ADAIFTASYRKVLAQLSA[Cit]KALQDI[Nle]SR-NH2) |
| 10 to 25 nM | CCCC[C@H](NC(=O)[C@@H](NC(=O)[C@H](CC(=O)O)NC(=O)[C@H](CCC(N)=O)NC(=O)[C@H](CC(C)C)NC(=O)[C@H](C)NC(=O)[C@H](CCCCN)NC(=O)[C@H](CCCNC(=N)N)NC(=O)[C@]1(C)CCCC=CCCCCCC[C@@](C)(NC(=O)[C@H](CCCNC(=N)N)NC(=O)[C@H](Cc2ccc(O)cc2)NC(=O)[C@H](CO)NC(=O)[C@H](C)NC(=O)[C@@H](NC(=O)[C@H](Cc2ccccc2)NC(=O)[C@@H](NC(=O)[C@H](C)NC(=O)[C@H](CC(=O)O)NC(=O)[C@H](C)NC(=O)[C@H](Cc2ccc(O)cc2)NC)[C@@H](C)CC)[C@@H](C)O)C(=O)N[C@@H](C(C)C)C(=O)N[C@@H](CC(C)C)C(=O)N[C@@H](C)C(=O)N[C@@H](CCC(N)=O)C(=O)N[C@@H](CC(C)C)C(=O)N[C@@H](CO)C(=O)N1)[C@@H](C)CC)C(=O)N[C@@H](CO)C(=O)N[C@@H](CCCNC(=N)N)C(N)=O [SP-57] |
